We go through one compound from US20110294794A1, “TREATMENT OF PROTEINOPATHIES USING A FARNESYL TRANSFERASE INHIBITOR” (Link Medicine Corporation, priority 2008, published 2011).

The test system of assay [1] is 3T3 H-ras (61L) xenograft tumor. The note with it: continuous infusion, cited from earlier work.
The subject of assay [2] is LC3 mRNA. In words: LC3 mRNA (qPCR) in differentiated SH-SY5Y cells. In kind it is cell-based, human. The procedure: Cell culture and immunocytochemistry: SH-SY5Y cells were grown in DMEM medium supplemented with 10% FBS and 1% pen/strep at 37° C. and 5% CO2. Cells were differentiated with 10 μM retinoic acid for 48 hr, then treated with the either rapamycin (100 nM or 1 μM) or with 100 nM of either LNK-754-TS or Tipifarnib for 48-72 hr. Cells were then fixed with 4% paraformaldehyde and stained for LC3 (Novus biological, NB100-2331, dilution 1:800) followed by secondary Alexa-564 anti-Rabbit (A-11011).
(§1) Quantitative real-time PCR: Gene expression profiles were done by qPCR on series of known autophagy genes. RNA was extracted with Tri-reagent (Sigma), and cDNAs generated using iScript (Biorad). qPCR analysis was carried out in a 96 well plate using an iCycler (BioRad, Hercules, Calif.), and iQ SYBR Green Supermix (Biorad) according to the manufacturer's specifications.
Such increases in LC3 mRNA levels are associated in the literature with stimulation of macroautophagy. This supports the hypothesis that at doses as low as 1 nM in this in vitro system there is stimulation of autophagy in these cells.
Autophagy was measured in a neuroblastoma cell culture system by three distinct approaches: quantitation of autophagy-related mRNA's, immunofluorescence microscopy of autophagosomes, and biochemical detection of the microtubule-associated protein 1 light chain 3 (LC3) a key protein that is required for autophagosome formation. Differentiated human neuroblastoma cells (SH-SY5Y) were treated for 72 hr with LNK-754-TS (0.01-100 nM), Zarnestra® (also referred to herein as tipifarnib) (100 nM) or rapamycin (1 μM).
(Quantitative PCR measures a nucleic acid by following its amplification.)

The subject of assay [3] is Ras. Nature of the assay: Soluble/cytoplasmic Ras level in frontal cortex of alpha-synuclein transgenic mice (immunoblot). The note with it: 0.09 mg/kg or 9 mg/kg b.i.d., 3 months. The assay is classed as in vivo, mouse. The procedure: The level of inhibition of Ras in brain by LNK-754-TS, dosed at an efficacious dose for efficacy in animal models of proteinopathy-dependent neurodegeneration, was investigated. Alpha-synuclein transgenic mice were treated for 3 months b.i.d. with vehicle or LNK-754-TS at 0.09 mg/kg or 9 mg/kg. Cortical tissue was extracted and homogenized, followed by isolation of soluble/cytosolic proteins in detergent-free buffer (50 mM Tris-HCl pH 7.4, 140 mM NaCl, 2 mM EDTA, Protease inhibitor cocktail) by centrifugation. 15 micrograms of protein lysate was analyzed per lane of SDS-PAGE gel, and immunoblotted for Ras and actin (FIG. 6). Densitometry was used to quantify the Ras/actin ratio for each sample, and results were plotted (FIG. 7). […] This contrasts with what is observed in xenograft cancer models, where inhibition of Ras farnesylation by high dose FTIs is directly correlated with efficacy (FIG. 3 and Example 3).

In assay [4] the test system is p62 mRNA. In words: p62 mRNA in SH-SY5Y cells. The conditions noted are these: 100 nM (FIG. 8e). The assay is classed as cell-based, human. How it is done:
as §1

Entries after “also recorded” stand apart in the source; their conditions may differ. A value given as a limit tells only on which side of the number the result lay.

As to `C#Cc1cccc(-c2cc(=O)n(C)c3ccc([C@](O)(c4ccc(Cl)cc4)c4cncn4C)cc23)c1` [LNK-754-TS, (R)-6-[(4-chlorophenyl)-hydroxyl-(1-methyl-1-H-imidazol-5-yl)-methyl]-4-(3-ethynylphenyl)-1-methyl-2-(1H)-quinonlinone (2S,3S)-dihydroxybutanedioate], in assay [1] (7 day treatment), the “continuous serum level at which significant inhibition of tumor growth was seen” value is “above 100 ng/mL”. Besides, the “inhibition of Ras farnesylation at which significant inhibition of tumor growth was seen” value in assay [1] (tumor tissue) is on record as no less than 50%. Besides, the “LC3 mRNA level” value in assay [2] (0.01-100 nM, 72 hr (FIG. 8a)) is listed as “upregulated; also recorded: increased”. Besides, in assay [2] (72 hr, vs. Zarnestra and rapamycin), the “potency of LC3 transcript upregulation relative to the other two compounds” value was “most potently”. Also, in assay [2] (doses between 1 and 100 nM, 72 hours (FIG. 4)), the “levels of mRNA of LC3” value is on record as “significant increases”. Also, in assay [3], the “effect on Ras farnesylation in brain” value is given as “no significant effect” and the “soluble Ras/actin level in cortex vs. vehicle” value is “No significant differences”. The “p62 mRNA” value in assay [4] is listed as “upregulation; also recorded: increased”.
